# Reference: patent publication US9567322B2, “Substituted tetrahydropyrans and method of use” (AbbVie S.á.r.l., priority 2014, dated 2017)
# pEC50: −log10 of the molar value.
# How the values were obtained:
# [1] = molecular target: T1, F508delCFTR (Homo sapiens, UniProt P13569, DEL508-508); assay: Cell Surface Expression-Horse Radish Peroxidase (CSE-HRP) assay; assay type: cell-based; details: CFBE41o-F508delCFTR-HRP cells; for pEC50: cell surface expression, luminescence readout, 18-24 hours at 33° C., highest concentration tested 20 μM, 8-point curve; for Maximum % activity: maximum at any tested concentration, normalized to on-plate positive control (3 μM) and DMSO
# T1 construct: expressed in transfected cells; host or cells: CFBE41o- (CFBE41o-F508delCFTR-HRP), doxycycline-inducible
# T1 sequence (P13569 with tags, fused parts or gaps DEL508-508): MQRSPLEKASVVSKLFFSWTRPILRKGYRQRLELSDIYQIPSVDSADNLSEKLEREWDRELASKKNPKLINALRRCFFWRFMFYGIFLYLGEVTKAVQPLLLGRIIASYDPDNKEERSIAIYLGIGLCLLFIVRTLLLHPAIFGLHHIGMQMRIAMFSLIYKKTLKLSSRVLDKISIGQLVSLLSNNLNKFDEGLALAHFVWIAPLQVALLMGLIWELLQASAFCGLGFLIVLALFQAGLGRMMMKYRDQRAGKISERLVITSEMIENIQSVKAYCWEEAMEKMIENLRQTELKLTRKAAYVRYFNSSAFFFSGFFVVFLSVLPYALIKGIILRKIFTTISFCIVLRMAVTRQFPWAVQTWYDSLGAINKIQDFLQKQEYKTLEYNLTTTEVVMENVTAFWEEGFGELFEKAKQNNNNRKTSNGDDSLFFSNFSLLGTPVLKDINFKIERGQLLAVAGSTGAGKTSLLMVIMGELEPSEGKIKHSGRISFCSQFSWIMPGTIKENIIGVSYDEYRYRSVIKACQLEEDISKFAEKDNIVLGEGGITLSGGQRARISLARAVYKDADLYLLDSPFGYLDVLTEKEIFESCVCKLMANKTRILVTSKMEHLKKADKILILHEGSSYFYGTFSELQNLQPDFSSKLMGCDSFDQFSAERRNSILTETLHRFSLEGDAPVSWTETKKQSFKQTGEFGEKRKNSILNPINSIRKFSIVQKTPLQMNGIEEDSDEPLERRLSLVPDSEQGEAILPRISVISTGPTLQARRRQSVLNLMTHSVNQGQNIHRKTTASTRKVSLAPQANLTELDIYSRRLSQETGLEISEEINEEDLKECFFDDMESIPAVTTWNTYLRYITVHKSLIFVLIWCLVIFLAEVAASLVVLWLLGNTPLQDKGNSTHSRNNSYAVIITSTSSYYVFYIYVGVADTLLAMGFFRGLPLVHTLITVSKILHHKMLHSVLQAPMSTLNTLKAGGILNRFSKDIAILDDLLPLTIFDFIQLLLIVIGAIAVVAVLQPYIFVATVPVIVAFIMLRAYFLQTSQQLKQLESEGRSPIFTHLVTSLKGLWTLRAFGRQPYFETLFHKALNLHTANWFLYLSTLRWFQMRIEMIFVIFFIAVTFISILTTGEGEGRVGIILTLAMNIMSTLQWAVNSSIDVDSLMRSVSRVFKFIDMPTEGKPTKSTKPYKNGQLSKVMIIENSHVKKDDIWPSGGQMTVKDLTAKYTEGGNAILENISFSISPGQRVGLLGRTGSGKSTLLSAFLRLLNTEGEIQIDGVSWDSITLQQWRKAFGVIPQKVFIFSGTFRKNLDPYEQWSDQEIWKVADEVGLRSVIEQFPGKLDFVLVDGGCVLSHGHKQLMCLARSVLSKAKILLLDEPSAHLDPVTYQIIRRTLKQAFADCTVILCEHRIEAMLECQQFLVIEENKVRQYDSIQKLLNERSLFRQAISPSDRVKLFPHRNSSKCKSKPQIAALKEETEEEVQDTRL
# Method in brief: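 CFBE41o- cells expressing F508delCFTR with HRP in the fourth extracellular loop were doxycycline-induced (0.5 μg/mL) for 72 h at 37 °C, then treated 18-24 h at 33 °C with an 8-point 3-fold series from 20 μM. Surface HRP luminescence (luminol) was normalized to DMSO and positive control; EC50 came from variable-slope sigmoidal fits of triplicate plates.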
# [2] = molecular target: T2, F508del/F508del CFTR (Homo sapiens, UniProt P13569, DEL508-508); assay: Transepithelial Clamp Circuit (TECC-24) conductance assay on primary human bronchial epithelial cells; assay type: cell-based; details: primary hBE cells from F508del/F508delCFTR patients; for pEC50: equivalent short circuit current (Ieq), correctors 18-24 hours at 37° C., with control potentiator, 6 test concentrations; for Maximum % activity: relative to positive control (3 μM) coupled with control potentiator = 100%
# T2 construct: cells isolated from CF patients with the homozygous mutation; endogenous in cells; host or cells: primary human bronchial epithelial (hBE) cells from F508del/F508del CF patients
# T2 sequence (P13569 with tags, fused parts or gaps DEL508-508): as above
# Text: Transepithelial Clamp Circuit on Human Bronchial Epithelial Cells Conductance Assay:
# A cell based assay using the primary human bronchial epithelial cells (hBE) was used as a secondary assay to test novel F508delCFTR correctors for their activity on primary hBE cells with F508del/F508del CFTR mutation. The assay used a TECC-24 (Transepithelial Clamp Circuit for 24 wells) instrument that measures the functionality of the mutated channel by measuring the equivalent short circuit current (Ieq) generated by the polarized epithelial cells. The instrument works by measuring the transepithelial potential difference (Vt) and transepithelial resistance (Rt) in an open circuit format, and the Ieq is calculated by using Ohms law (Ieq=Vt/Rt). The assay was run in a 24-well format and all 24-wells were measured at the same time point giving a higher throughput for this assay.
# Primary human bronchial epithelial (hBE) cells from F508del/F508delCFTR patients were expanded from 1×10^6 to 250×10^6 cells (Neuberger T, Burton B, Clark H and VanGoor F; Cystic Fibrosis, Methods in Mole Biol 741; eds. Amaral M D and Kunzelmann K, 2011). For this purpose, cells isolated from CF patients with the homozygous mutation were seeded onto 24 well Corning (Cat #3378) filter plates that were coated with 3T3 conditioned media and grown at an air-liquid interface for 35 days using an Ultroser® G supplemented differentiation media. Apical surface mucus was removed 72 hours before the experiment using 3 mM dithiothreitol (DTT) in phosphate buffered saline (PBS). The apical surface was washed again 24 hours before the experiment using PBS. The cells were incubated with the desired dose response of the corrector compounds 18-24 hours at 37° C., 5% CO2. The corrector compounds are only added on the basolateral side of the epithelial cells.
# On the day of measuring the corrector activity on the TECC, the cells were switched into a bicarbonate and serum free F-12 Coon's medium and allowed to equilibrate for 90 minutes in a CO2 free incubator. At the time of measurement, the apical and basolateral sides of the filter were bathed with the F-12 Coon's modification media (with 20 mM 4-(2-hydroxyethyl)-1-piperazineethanesulfonic acid (HEPES), pH 7.4 (using 1 M tris(hydroxymethyl)aminomethane (Tris)), and the measurements were made at 36.5° C. Transepithelial voltage (Vt) and transepithelial resistance (Rt) were measured using a 24 channel transepithelial current clamp (TECC-24). Current responses to the sequential addition of benzamil (apical 6 M addition; for inhibiting epithelial ENaC channel), forskolin (apical and basolateral 10 M addition; for activating the CFTR channel), control potentiator (N-(3-carbamoyl-5,5,7,7-tetramethyl-4,7-dihydro-5H-thieno[2,3-c]pyran-2-yl)-1H-pyrazole-5-carboxamide; apical and basolateral 1 M addition; for potentiating the CFTR channel) and bumetanide (basolateral 20 μM addition; for inhibiting the Na:2Cl:K co-transporter, an indirect measure of inhibiting the Cl-secretion driven by CFTR channel) were measured.
# All plates contained negative controls (dimethyl sulfoxide, DMSO) which coupled with the control potentiator (N-(3-carbamoyl-5,5,7,7-tetramethyl-4,7-dihydro-5H-thieno[2,3-c]pyran-2-yl)-1H-pyrazole-5-carboxamide) sets the null response and positive controls (3 μM of 3-[(2R,4R)-4-({[1-(2,2-difluoro-1,3-benzodioxol-5-yl)cyclopropyl]carbonyl}amino)-7-methoxy-3,4-dihydro-2H-chromen-2-yl]benzoic acid) coupled with the control potentiator sets the 100% response to measure the correction of the mutated CFTR channel. The maximum percent activity is reported relative to the positive control value.
# The % activity measured at each of the 6 test concentrations of the test compound was normalized to the on-plate positive control using the following formula: % activity=[(test compound response−DMSO response)/(positive control response−DMSO response)]*100 […]
smiles,measurement,setting,value
"Cc1cc(C(=O)O)ccc1[C@H]1C[C@H](NC(=O)C2(c3ccc4c(c3)OC(F)(F)O4)CC2)C[C@@H](c2ccccc2)O1 (single isomer, unassigned) [Example 65]",pEC50,[1],6.43
same,pEC50,[2],6.70
"O=C(O)c1ccc([C@H]2C[C@@H](NC(=O)C3(c4ccc5c(c4)OC(F)(F)O5)CC3)C[C@@H](c3ccccc3)O2)c(F)c1 (racemic) [Example 60, rac-4-[(2R,4S,6S)-4-({[1-(2,2-difluoro-1,3-benzodioxol-5-yl)cyclopropyl]carbonyl}amino)-6-phenyltetrahydro-2H-pyran-2-yl]-3-fluorobenzoic acid]",pEC50,[1],6.57
same,Maximum % activity,[1],97%
same,pEC50,[2],6.85
same,Maximum % activity,[2],83%
"O=C(O)c1ccc([C@H]2C[C@@H](NC(=O)C3(c4ccc5c(c4)OC(F)(F)O5)CC3)C[C@@H](c3ccccc3)O2)cc1 (single isomer, unassigned) [Example 53]",pEC50,[1],6.52
same,Maximum % activity,[1],81%
same,pEC50,[2],6.59
same,Maximum % activity,[2],73%
"O=C(O)c1cccc([C@H]2C[C@@H](NC(=O)C3(c4ccc5c(c4)OC(F)(F)O5)CC3)C[C@@H](c3ccccc3)O2)c1 (racemic) [Example 24, rac-3-[(2R,4S,6S)-4-({[1-(2,2-difluoro-1,3-benzodioxol-5-yl)cyclopropyl]carbonyl}amino)-6-phenyltetrahydro-2H-pyran-2-yl]benzoic acid]",pEC50,[1],6.30
same,Maximum % activity,[1],109%
same,pEC50,[2],6.47
same,Maximum % activity,[2],76%
"O=C(O)c1cccc([C@H]2C[C@@H](NC(=O)C3(c4ccc5c(c4)OC(F)(F)O5)CC3)CCO2)c1 [Example 19, 3-[(2R,4S)-4-({[1-(2,2-difluoro-1,3-benzodioxol-5-yl)cyclopropyl]carbonyl}amino)tetrahydro-2H-pyran-2-yl]benzoic acid]",pEC50,[1],5.65
same,Maximum % activity,[1],100%
same,pEC50,[2],5.99
same,Maximum % activity,[2],87%
"Cc1cc(C(=O)O)cc([C@H]2C[C@@H](NC(=O)C3(c4ccc5c(c4)OC(F)(F)O5)CC3)C[C@@H](c3ccccc3)O2)c1 (racemic) [Example 73, rac-3-[(2R,4S,6S)-4-({[1-(2,2-difluoro-1,3-benzodioxol-5-yl)cyclopropyl]carbonyl}amino)-6-phenyltetrahydro-2H-pyran-2-yl]-5-methylbenzoic acid]",pEC50,[1],6.39
same,Maximum % activity,[1],90%
same,pEC50,[2],6.48
same,Maximum % activity,[2],91%
"O=C(O)c1ccc([C@H]2C[C@@H](NC(=O)C3(c4ccc5c(c4)OC(F)(F)O5)CC3)CCO2)cc1 [Example 31, 4-[(2R,4S)-4-({[1-(2,2-difluoro-1,3-benzodioxol-5-yl)cyclopropyl]carbonyl}amino)tetrahydro-2H-pyran-2-yl]benzoic acid]",pEC50,[1],6.11
same,Maximum % activity,[1],102%
same,pEC50,[2],5.99
same,Maximum % activity,[2],65%
"O=C(O)c1ccc([C@H]2C[C@@H](NC(=O)C3(c4ccc5c(c4)OC(F)(F)O5)CC3)CCO2)cc1 (racemic) [Example 14, rac-4-[(2R,4S)-4-({[1-(2,2-difluoro-1,3-benzodioxol-5-yl)cyclopropyl]carbonyl}amino)tetrahydro-2H-pyran-2-yl]benzoic acid]",pEC50,[1],5.54
same,Maximum % activity,[1],113%
same,pEC50,[2],5.87
same,Maximum % activity,[2],73%
"O=C(O)c1cccc([C@H]2C[C@@H](NC(=O)C3(c4ccc5c(c4)OC(F)(F)O5)CC3)C[C@@H](c3ccccc3)O2)c1 [Example 27, 3-[(2R,4S,6S)-4-({[1-(2,2-difluoro-1,3-benzodioxol-5-yl)cyclopropyl]carbonyl}amino)-6-phenyltetrahydro-2H-pyran-2-yl]benzoic acid]",pEC50,[1],6.55
same,Maximum % activity,[1],109%
same,pEC50,[2],7.00
same,Maximum % activity,[2],94%
"Cc1cc(C(=O)O)cc([C@@H]2C[C@H](NC(=O)C3(c4ccc5c(c4)OC(F)(F)O5)CC3)C[C@H](c3ccccc3)O2)c1 (single isomer, unassigned) [Example 76]",pEC50,[1],5.80
same,Maximum % activity,[1],38%
"O=C(N[C@@H]1CCO[C@H](c2ccc3c(c2)OCO3)C1)C1(c2ccc3c(c2)OC(F)(F)O3)CC1 [Example 15, N-[(2S,4R)-2-(1,3-benzodioxol-5-yl)tetrahydro-2H-pyran-4-yl]-1-(2,2-difluoro-1,3-benzodioxol-5-yl)cyclopropanecarboxamide]",pEC50,[1],5.17
same,Maximum % activity,[1],75%
"Cc1ccc(C(=O)O)cc1[C@H]1C[C@@H](NC(=O)C2(c3ccc4c(c3)OC(F)(F)O4)CC2)C[C@@H](c2ccccc2)O1 (racemic) [Example 70, rac-3-[(2R,4S,6S)-4-({[1-(2,2-difluoro-1,3-benzodioxol-5-yl)cyclopropyl]carbonyl}amino)-6-phenyltetrahydro-2H-pyran-2-yl]-4-methylbenzoic acid]",pEC50,[1],6.04
same,Maximum % activity,[1],92%
"C[C@@H]1C[C@H](NC(=O)C2(c3ccc4c(c3)OC(F)(F)O4)CC2)C[C@H](c2ccc(C(=O)O)cc2)O1 (racemic) [Example 45, rac-4-[(2R,4S,6R)-4-({[1-(2,2-difluoro-1,3-benzodioxol-5-yl)cyclopropyl]carbonyl}amino)-6-methyltetrahydro-2H-pyran-2-yl]benzoic acid]",pEC50,[1],5.70
same,Maximum % activity,[1],101%
"COc1cccc([C@@H]2C[C@H](NC(=O)C3(c4ccc5c(c4)OC(F)(F)O5)CC3)C[C@H](c3cccc(C(=O)O)c3)O2)c1 (single isomer, unassigned) [Example 74]",pEC50,[1],6.62
same,Maximum % activity,[1],89%
"COC(=O)c1cccc([C@H]2C[C@@H](NC(=O)C3(c4ccc5c(c4)OC(F)(F)O5)CC3)C[C@@H](c3ccccc3)O2)c1 (racemic) [Example 23, methyl rac-3-[(2R,4S,6S)-4-({[1-(2,2-difluoro-1,3-benzodioxol-5-yl)cyclopropyl]carbonyl}amino)-6-phenyltetrahydro-2H-pyran-2-yl]benzoate]",pEC50,[1],6.07
same,Maximum % activity,[1],104%
"COC(=O)c1ccc(C)c([C@H]2C[C@@H](NC(=O)C3(c4ccc5c(c4)OC(F)(F)O5)CC3)C[C@@H](c3ccccc3)O2)c1 (racemic) [Example 71, methyl rac-3-[(2R,4S,6S)-4-({[1-(2,2-difluoro-1,3-benzodioxol-5-yl)cyclopropyl]carbonyl}amino)-6-phenyltetrahydro-2H-pyran-2-yl]-4-methylbenzoate]",pEC50,[1],5.88
same,Maximum % activity,[1],92%
"COC(=O)c1ccc([C@H]2C[C@@H](NC(=O)C3(c4ccc5c(c4)OC(F)(F)O5)CC3)CCO2)c(C)c1 (single isomer, unassigned) [Example 41]",pEC50,[1],6.39
same,Maximum % activity,[1],104%
